pIC50: −log10 of the molar value.
Tests used:
[1] = system: Ca2+ entry in LNCaP cells; experiment: Measurement of intracellular Ca2+ concentration (Ca2+ entry), LNCaP cells; format: cell-based, human
Description: Cells were incubated in growth media containing 1 μM of the acetoxy-methyl ester of the Ca^2+-sensitive fluorescent dye indo-1 (indo-1/AM, Molecular Probes, Eugene, Oreg.) for 1 hour at 37° C. Cells were washed three times in buffer A (10 mM HEPES, pH 7.4, 1 mM MgCl2, 3 mM KCl, 1 mM CaCl2, 140 mM NaCl, 0.1% glucose, 1% fetal bovine serum) and suspended to a final concentration of 10^6/ml. Prior to stimulation, cells were warmed to 37° C. Prior to stimulation, cells were also incubated with drug, calcium channel antagonists and the IC50 values were determined. Changes in [Ca^2+] were monitored in an SLM 8100C spectrofluorometer (SLM/Aminco, Urbana, Ill.) using previously published methods, Haverstick, et al. (1998) Cell Calcium, 23: 361-368; Densmore, et al. (1996) Am. J. Physiol., 271:C1494-1503, incorporated herein by reference.
Calcium influx into the cell is suitably stimulated using either (1) a physiological ligand or (2) an endoplasmic reticulum (ER) ATPase inhibitor. Preferably, a physiological ligand is used to stimulate calcium influx into the cell.
Endoplasmic Reticulum (ER) ATPase inhibitor, as used herein, is any compound which stimulates the release of calcium from the endoplasmic reticulum into the cytoplasm, which, in turn, activates calmodulin, which, in turn, activates calcium entry into the cell (for review of ER ATPase inhibitors, see Thastrup, O, Agents and Actions (1990), 29:8-15; Inesi and Sagara, Archives of Biochem. and Biophys., 298:313-7 and Darby, et al., Biological Signals (1993), 2:293-304). Preferred ER ATPase inhibitors include cyclopiazonic acid (available from Sigma, St. Louis, Mo.) and thapsigargin (available from Sigma).
TH-1177 blocked capacitative Ca^2+ entry in human prostate cancer cells. In electrically non-excitable cells, Ca^2+ influx is triggered by release of Ca^2+ from its internal storage depot by a phenomenon that has been called “capacitative”Ca^2+ entry (Putney, J. W., Jr. (1986) Cell Calcium, 7:1-12; Haverstick, et al. (1993) Mol. Biol. Cell, 4: 173-184; Kohn, et al. Proc. Natl. Acad. Sci. USA, 92: 1307-1311, incorporated herein by reference). Capacitative entry can be initiated by treatment of cells with thapsigargin. Thapsigargin inhibits the Ca^2+-ATPase of the endoplasmic reticulum allowing uncompensated leak of Ca^2+ from this compartment into the cytosol thereby causing Ca^2+ entry in the absence of engagement of a specific receptor. (Thastrup, et al. (1990) Proc. Natl. Acad. Sci. USA, 87: 2466-2470; Takemura, et al. (1989) J. Biol. Chem. 264: 12266-12271, incorporated herein by reference).
The P2 purinergic receptor is linked to activation of the Ca^2+ entry pathway in many types of cells including prostate cancer cells (Fang, et al. (1992) J. Clin. Invest. 89: 191-196). […]

[2] = target: T1, α1H subunit of a calcium channel of a human heart (Homo sapiens, UniProt O95180); experiment: Whole cell current recording, Xenopus oocytes transfected with α1H subunit; format: cell-based
T1 construct: expressed in transfected cells; host or cells: Xenopus oocytes (so in the source), pcDNA3 plasmid
T1 sequence (O95180 whole entry): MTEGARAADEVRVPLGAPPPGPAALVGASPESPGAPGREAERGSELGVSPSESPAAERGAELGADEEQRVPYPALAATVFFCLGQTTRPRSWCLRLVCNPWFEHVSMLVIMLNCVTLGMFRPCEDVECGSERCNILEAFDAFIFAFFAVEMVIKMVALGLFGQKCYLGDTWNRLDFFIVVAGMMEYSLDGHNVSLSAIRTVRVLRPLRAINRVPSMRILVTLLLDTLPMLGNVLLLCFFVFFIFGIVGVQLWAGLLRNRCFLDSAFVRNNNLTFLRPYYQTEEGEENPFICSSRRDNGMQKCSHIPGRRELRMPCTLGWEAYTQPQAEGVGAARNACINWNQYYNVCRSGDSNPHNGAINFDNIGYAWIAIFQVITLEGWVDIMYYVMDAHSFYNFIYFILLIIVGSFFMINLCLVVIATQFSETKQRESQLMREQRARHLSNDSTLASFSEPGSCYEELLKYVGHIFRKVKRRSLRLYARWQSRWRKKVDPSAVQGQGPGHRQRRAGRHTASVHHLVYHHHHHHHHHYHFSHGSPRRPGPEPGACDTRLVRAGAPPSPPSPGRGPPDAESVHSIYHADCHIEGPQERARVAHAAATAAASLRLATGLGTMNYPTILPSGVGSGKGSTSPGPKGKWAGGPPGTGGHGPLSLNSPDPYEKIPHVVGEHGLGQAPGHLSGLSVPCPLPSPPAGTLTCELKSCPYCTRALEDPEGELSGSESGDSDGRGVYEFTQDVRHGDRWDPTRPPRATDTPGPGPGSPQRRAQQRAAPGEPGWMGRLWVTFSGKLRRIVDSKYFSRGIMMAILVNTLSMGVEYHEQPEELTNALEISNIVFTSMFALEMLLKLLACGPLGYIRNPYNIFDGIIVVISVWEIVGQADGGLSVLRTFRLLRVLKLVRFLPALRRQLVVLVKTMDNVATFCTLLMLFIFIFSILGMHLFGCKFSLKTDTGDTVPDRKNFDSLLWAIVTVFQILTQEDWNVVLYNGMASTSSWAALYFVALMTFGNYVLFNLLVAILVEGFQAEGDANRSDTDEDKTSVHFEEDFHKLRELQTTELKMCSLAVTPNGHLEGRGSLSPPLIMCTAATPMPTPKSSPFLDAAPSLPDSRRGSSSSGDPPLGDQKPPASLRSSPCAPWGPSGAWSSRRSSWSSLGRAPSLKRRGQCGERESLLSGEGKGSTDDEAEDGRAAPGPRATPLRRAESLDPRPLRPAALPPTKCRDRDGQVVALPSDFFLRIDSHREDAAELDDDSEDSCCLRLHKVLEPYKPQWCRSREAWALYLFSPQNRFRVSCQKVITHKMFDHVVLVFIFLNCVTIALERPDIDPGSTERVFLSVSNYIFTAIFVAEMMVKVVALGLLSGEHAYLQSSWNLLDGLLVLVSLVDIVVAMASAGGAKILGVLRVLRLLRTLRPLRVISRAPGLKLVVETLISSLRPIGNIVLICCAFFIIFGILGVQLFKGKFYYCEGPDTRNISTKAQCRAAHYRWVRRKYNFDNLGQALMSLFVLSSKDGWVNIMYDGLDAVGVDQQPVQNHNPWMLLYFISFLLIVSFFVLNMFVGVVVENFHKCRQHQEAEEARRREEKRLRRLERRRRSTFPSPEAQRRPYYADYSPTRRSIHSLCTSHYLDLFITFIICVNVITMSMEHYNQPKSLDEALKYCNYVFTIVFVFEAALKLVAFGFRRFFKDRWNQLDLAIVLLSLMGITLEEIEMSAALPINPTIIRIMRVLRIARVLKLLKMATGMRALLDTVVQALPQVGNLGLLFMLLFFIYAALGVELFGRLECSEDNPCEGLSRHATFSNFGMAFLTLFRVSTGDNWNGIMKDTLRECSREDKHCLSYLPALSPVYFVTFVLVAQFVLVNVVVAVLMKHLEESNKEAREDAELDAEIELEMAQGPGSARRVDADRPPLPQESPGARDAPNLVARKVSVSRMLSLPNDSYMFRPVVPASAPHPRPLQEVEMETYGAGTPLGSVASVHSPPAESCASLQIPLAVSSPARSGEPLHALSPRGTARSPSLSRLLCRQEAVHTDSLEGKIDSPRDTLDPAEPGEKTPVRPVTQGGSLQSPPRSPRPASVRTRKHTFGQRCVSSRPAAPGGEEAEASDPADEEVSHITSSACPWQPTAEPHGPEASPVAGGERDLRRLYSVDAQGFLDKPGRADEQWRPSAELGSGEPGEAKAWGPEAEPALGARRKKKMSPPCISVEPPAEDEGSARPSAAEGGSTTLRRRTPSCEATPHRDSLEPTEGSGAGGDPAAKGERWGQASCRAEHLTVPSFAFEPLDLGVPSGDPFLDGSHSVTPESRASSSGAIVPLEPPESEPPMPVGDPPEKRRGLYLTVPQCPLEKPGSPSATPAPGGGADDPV
Description: Xenopus oocytes were transfected with the α1H subunit of a calcium channel of a human heart prepared in accordance with the procedure described by Cribbs, et al. in Circulation Research, 1998, 83, 103-109, the contents of which are incorporated by reference. The α1H plasmid was obtained by cloning the α1H sequence into the EcoRV-X baI site of the transfection vector pcDNA3, in accordance with the procedure described in the Cribbs, et al. article. Xenopus oocyte cells (1×10^5 per 35 mm dish) were transfected with 2 μg of alpha 1H-Tx plasmid. […] The internal pipette solution contained (mmol/L) CsCl 55, CS SO3 75, MgCl2 10, EGTA 0.1, and HEPES 10 (pH adjusted to 7.2 with (CsOH). Currents were recorded using an Axopatch 200A, a Digidata 1200 A/D converter and pCLAMP software (Axon Instruments, Inc.).
The current of the cell in the depolarized cell was recorded over time (control). Within a few minutes after the control plot was recorded, the cells were again depolarized, but this time, the bath contained in addition 10 μM TH-1177. The current was recorded for the same length of time as the control. The current was recorded at about zero pA. Then the cells in the bath containing 10 μM TH-1177 were depolarized again, but this time the bath medium containing TH-1177 was aspirated out and replaced with fresh calcium medium depolarizing medium and the current was measured.

pIC50 ([1]; EGTA chelation of extracellular Ca2+ considered 100% inhibition, read-out: IC50 for blocking Ca2+ entry, LNCaP cells): 5.52
Current in depolarized α1H-transfected cells ([2]; 10 μM TH-1177 in bath): about zero
Ability of calcium to cross the cell membrane ([2]; α1H-transfected Xenopus oocytes, 10 μM, restored on washout): inhibits
Compound: COc1ccc(CCN2CCC[C@H]2COC(c2ccccc2)c2ccc(Cl)cc2)cc1 (stereo partly drawn) [TH-1177]
Effect on increase in [Ca2+]i stimulated by thapsigargin ([1]; LNCaP, 300 nM thapsigargin, drug added before stimulus): dose dependent inhibition
Effect on rise in [Ca2+]i stimulated by ATP ([1]; LNCaP, 1 mM ATP, 10 μM TH-1177 added prior): inhibited
Effect on release of Ca2+ from the internal storage pool ([1]; LNCaP, EGTA in medium, 1 mM ATP): no effect
